Results: patent publication US5051534A, “Novel cyclopropyl squalene derivatives and their use as inhibitors of cholesterol synthesis” (Merrell Dow Pharmaceuticals Inc., priority 1990, dated 1991)

Biological target: T1, squalene epoxidase (Rattus norvegicus, UniProt P52020)
T1 construct: Microsomes, prepared by ultracentrifugation of homogenates of rat liver; from tissue; host or cells: rat liver microsomes, incubated with the high speed supernatant fraction
Assay: Inhibition of squalene epoxidase in rat liver microsomes (3H-squalene incubation, TLC or HPLC radioactivity)
Assay type: biochemical
Conditions: 37° C., 45 minutes, 60 μM 3H-squalene, 2.0 mM NADPH, 0.01 mM FAD, compounds tested at >0.0 to 100.0 μM
Protocol: The following assay is used to test compounds for their ability to inhibit 2,3-oxidosqualene lanosterol-cyclase (squalene cyclase) or squalene epoxidase. Microsomes, prepared by ultracentrifugation of homogenates of rat liver, are incubated at 37° C. for 45 minutes in the presence of 60 μM ^3 H-squalene, 2.0 mM NADPH, 0.01 mM FAD, and the high speed supernatant fraction from the microsomal preparation. Blanks, in which NADPH has been omitted, are run simultaneously with the test compounds. Compounds are tested at concentrations of >0.0 to 100.0 μM.
Following incubation the samples are saponified, standards are added to each sample, and then the reaction products are extracted into hexane. The hexane extracts are dried and then the dried extracts are redissolved in chloroform. […] Spots containing the reaction products are scraped from the TLC plates and counted for radioactivity in a scintillation counter. An IC50 is finally calculated.
Incubation reactions are stopped by the addition of chloroform:methanol, standards are added and the reaction products and standards are extracted into chloroform. […] Chromatographic peaks containing reaction products are monitored for radioactivity with a flow-through scintillation counter connected in series with the HPLC column. An IC50 (Inhibitory Concentration) is calculated based on the radioactivity in controls and samples. […]

T1 sequence (P52020 whole entry): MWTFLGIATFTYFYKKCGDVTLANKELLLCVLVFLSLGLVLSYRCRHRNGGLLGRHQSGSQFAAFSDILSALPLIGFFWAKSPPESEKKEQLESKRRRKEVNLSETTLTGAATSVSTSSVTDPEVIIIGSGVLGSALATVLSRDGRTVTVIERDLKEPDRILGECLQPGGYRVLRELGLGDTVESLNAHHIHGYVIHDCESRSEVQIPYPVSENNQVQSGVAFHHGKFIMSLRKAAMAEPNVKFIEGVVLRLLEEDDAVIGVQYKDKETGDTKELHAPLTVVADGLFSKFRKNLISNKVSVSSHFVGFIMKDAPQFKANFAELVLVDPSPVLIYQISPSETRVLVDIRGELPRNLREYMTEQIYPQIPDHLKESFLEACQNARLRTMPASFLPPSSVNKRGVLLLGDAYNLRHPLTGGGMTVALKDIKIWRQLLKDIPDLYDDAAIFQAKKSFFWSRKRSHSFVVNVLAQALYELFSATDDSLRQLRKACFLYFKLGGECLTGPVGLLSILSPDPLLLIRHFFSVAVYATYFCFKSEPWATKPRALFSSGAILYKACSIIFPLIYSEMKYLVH

CC(C)=CCC/C(C)=C/CC/C(C)=C/CC/C=C(\C)CC/C=C(\C)CCCOC1CC1 [Compound 1, 4,8,13,17,21-Pentamethyl-4,8,12,16,20-docosapentaen-l-ol cyclopropyl ether]
IC50: 42 µM
